Like-named read-outs stand apart in the source and are kept apart here.
How the values were obtained:
HCV genotype 1a replicon = experiment: HCV replicon assay, genotype 1a (cell ELISA for NS3/4A); assay type: cell-based, hepatitis C virus
Procedure: (§1) Measurement of inhibition by compounds was performed using the HCV replicon system. Several different replicons encoding different HCV genotypes or mutations were used. In addition, potency measurements were made using different formats of the replicon assay, including different ways of measurements and different plating formats. See Jan M. Vrolijk et al., A replicons-based bioassay for the measurement of interferons in patients with chronic hepatitis C, 110 J. VIROLOGICAL METHODS 201 (2003); Steven S. Carroll et al., Inhibition of Hepatitis C Virus RNA Replication by 2′-Modified Nucleoside Analogs, 278 (14) J. BIOLOGICAL CHEMISTRY 11979 (2003). However, the underlying principles are common to all of these determinations, and are outlined below.
(§2) Stable neomycin phosphotransferase encoding replicons-harboring cell lines were used, so all cell lines were maintained under G418 selection prior to the assay. Potency was deteremined using a cell ELISA assay with an antibody to the replicons encoded NS3/4a protease. See Caterina Trozzi et al., In Vitro Selection and Characterization of Hepatitis C Virus Serine Protease Variants Resistant to an Active-Site Peptide Inhibitor, 77 (6) J. Virol. 3669 (2003). To initiate an assay, replicon cells were plated in the presence of a dilution series of test compound in the absence of G418. Typically, the assays were performed in a 96-well plate formate for manual operation, or a 384-well plate format for automated assay. Replicon cells and compound were incubated for 96 hours. At the end of the assay, cells were washed free of media and compound, and the cells were then lysed. RNA was quantified indirectly through detection of replicon-encoded NS3/4A protein levels, through an ELISA-based assay with an antibody specific for NS3/4A. IC50 determinations were calculated as a percentage of a DMSO control by fitting the data to a four-parameter fit function and the data obtained for genotypes 1a and 1b using this method is provided in the table below.

HCV genotype 1b replicon = experiment: HCV replicon assay, genotype 1b (cell ELISA for NS3/4A); assay type: cell-based, hepatitis C virus
Procedure: as §1, §2

[1] = read-out: 1a IC50, genotype 1a replicon cells, 96 hours incubation, NS3/4A ELISA
[2] = Hepatitis C virus, 96 h, read-out: 1b IC50 (nM), genotype 1b replicon cells, 96 hours incubation, NS3/4A ELISA
[3] = read-out: 1b IC50, genotype 1b replicon cells, 96 hours incubation, NS3/4A ELISA
[4] = Hepatitis C virus, 96 h, read-out: 1a IC50 (nM), genotype 1a replicon cells, 96 hours incubation, NS3/4A ELISA

| SMILES | IC50 (HCV genotype 1a replicon; [1]) [nM] | IC50 (HCV genotype 1b replicon; [2]) [nM] | IC50 (HCV genotype 1b replicon; [3]) [nM] | IC50 (HCV genotype 1a replicon; [4]) [nM] |
| --- | --- | --- | --- | --- |
| CNC(=O)c1c(-c2ccc(F)cc2)oc2cc(N(C)S(C)(=O)=O)c(-c3cc4c(cn3)CC(C)n3c-4cc4c(F)cccc43)cc12 (single isomer, unassigned) [Example 41, (R or S)-5-(11-fluoro-6-methyl-5,6-dihydroindolo[2,1-a][2,6]naphthyridin-2-yl)-2-(4-fluorophenyl)-N-methyl-6-(N-methylmethylsulfonamido)benzofuran-3-carboxamide] | 19.3 | 6.33 | – | – |
| CNC(=O)c1c(-c2ccc(F)cc2)oc2cc(N(C)S(C)(=O)=O)c(-c3cc4c(cn3)C(C)Cn3c-4cc4c(F)cccc43)cc12 (single isomer, unassigned) [Example 61, (S or R)-5-(11-fluoro-5-methyl-5,6-dihydroindolo[2,1-a][2,6]naphthyridin-2-yl)-2-(4-fluorophenyl)-N-methyl-6-(N-methylmethylsulfonamido)benzofuran-3-carboxamide] | 2.27 | – | 7.8 | – |
| CNC(=O)c1c(-c2ccc(F)cc2F)oc2cc(N(C)S(C)(=O)=O)c(-c3ccc4ccn5c6cccc(F)c6cc5c4n3)cc12 [Example 84] | – | 6.41 | – | 4.28 |
| CNC(=O)c1c(-c2cnn3c2CCC3)oc2cc(N(C)S(C)(=O)=O)c(-c3ccc4c(n3)-c3cc5c(F)cccc5n3CC4)cc12 [Example 19] | – | 52.3 | – | 56.9 |
| CNC(=O)c1c(-c2ccc(OCC(F)(F)F)nc2)oc2cc(N(C)S(C)(=O)=O)c(-c3ccc4c(n3)-c3cc5c(F)cccc5n3CC4)cc12 [Example 4] | – | 7.3 | – | 6.99 |
| CNC(=O)c1c(-c2ccc(F)cc2)oc2cc(N(C)S(C)(=O)=O)c(-c3ccc4c(n3)-c3cc5c(F)cccc5n3CCC4)cc12 [Example 72, 5-(12-fluoro-6,7-dihydro-5H-pyrido[2′,3′:3,4]azepino[1,2-a]indol-2-yl)-2-(4-fluorophenyl)-N-methyl-6-(N-methylmethylsulfonamido)benzofuran-3-carboxamide] | – | 4.29 | – | 3.71 |
| CNC(=O)c1c(-c2ccc(F)cc2)oc2cc(N(C)S(C)(=O)=O)c(-c3ccc4c(n3)-c3cc5c(F)cccc5n3CC(O)C4)cc12 (stereo not drawn) [Example 69] | – | 2.95 | – | 2.3 |
| CNC(=O)c1c(-c2ccc(F)cc2)oc2cc(N(C)S(C)(=O)=O)c(-c3ccc4ccn5c6ccc(OC)nc6cc5c4n3)cc12 [Example 80] | – | 9.77 | – | 27.7 |
| CNC(=O)c1c(-c2ccc(F)cc2)oc2cc(N(C)S(C)(=O)=O)c(-c3ccc4c(n3)-c3cc5c(F)cccc5n3C(CCO)C4)cc12 (stereo not drawn) [Example 65, 5-(11-fluoro-6-(2-hydroxyethyl)-5,6-dihydroindolo[1,2-h][1,7]naphthyridin-2-yl)-2-(4-fluorophenyl)-N-methyl-6-(N-methylmethylsulfonamido)benzofuran-3-carboxamide] | – | 3.96 | – | 3.62 |
| CNC(=O)c1c(-c2ccc(C)nc2)oc2cc(N(C)S(C)(=O)=O)c(-c3ccc4c(n3)-c3cc5c(F)cccc5n3CC(N3CC(F)C3)C4)cc12 (stereo not drawn) [Example 71] | – | 42.2 | – | 41.7 |
| CNC(=O)c1c(-n2ccccc2=O)oc2cc(N(C)S(C)(=O)=O)c(-c3ccc4c(n3)-c3cc5c(F)cccc5n3CC4)cc12 [Example 34] | – | 4.66 | – | 5.38 |
| CNC(=O)c1c(-c2ccc(F)cc2F)oc2cc(N(C)S(C)(=O)=O)c(-c3ccc4c(n3)-c3cc5c(F)cccc5n3C(CS(C)(=O)=O)C4)cc12 (stereo not drawn) [Example 58] | 1.52 | 1.71 | – | – |
| CNC(=O)c1c(-c2ccc(F)nc2)oc2cc(N(C)S(C)(=O)=O)c(-c3ccc4c(n3)-c3cc5c(F)cccc5n3CC4)cc12 [Example 15] | – | 5.09 | – | 3.41 |
| CNC(=O)c1c(-c2ccc(F)cc2)oc2cc(N(C)S(C)(=O)=O)c(-c3ccc4c(n3)-c3cc5c(F)cccc5n3CC43CC3)cc12 [Example 97, 5-(11′-fluoro-6′H-spiro[cyclopropane-1,5′-indolo[1,2-h][1,7]naphthyridin]-2′-yl)-2-(4-fluorophenyl)-N-methyl-6-(N-methylmethylsulfonamido)benzofuran-3-carboxamide] | – | 9.98 | – | 10.7 |
| CNC(=O)c1c2cc(-c3ccc4c(n3)-c3cc5c(F)cccc5n3CC4)c(N(C)S(C)(=O)=O)cc2nn1-c1ccc(F)cc1 [Example 47, 5-(11-fluoro-5,6-dihydroindolo[1,2-h][1,7]naphthyridin-2-yl)-2-(4-fluorophenyl)-N-methyl-6-(N-methylmethylsulfonamido)-2H-indazole-3-carboxamide] | – | 8.46 | – | 14.5 |
| CNC(=O)c1c(-c2ccc(F)cc2)oc2cc(N(C)S(C)(=O)=O)c(-c3ccc4c(n3)-c3cc5c(C#N)cccc5n3CCC4)cc12 [Example 73] | – | 2.78 | – | 2.01 |
| CCc1ncc(-c2oc3cc(N(C)S(C)(=O)=O)c(-c4ccc5c(n4)-c4cc6c(F)cccc6n4CC5)cc3c2C(=O)NC)s1 [Example 38] | – | 17 | – | 21.8 |
| CNC(=O)c1c(-c2cnc3c(c2)OCCO3)oc2cc(N(C)S(C)(=O)=O)c(-c3ccc4c(n3)-c3cc5c(F)cccc5n3CC4)cc12 [Example 8] | – | 122 | – | 580 |
| CNC(=O)c1c(-c2ccc(F)cc2)oc2cc(N(C)S(C)(=O)=O)c(-c3ccc4c(n3)-c3cc5c(F)cccc5n3CCCC4)cc12 [Example 99, 5-(13-fluoro-5,6,7,8-tetrahydropyrido[2′,3′:3,4]azocino[1,2-a]indol-2-yl)-2-(4-fluorophenyl)-N-methyl-6-(N-methylmethylsulfonamido)benzofuran-3-carboxamide] | – | 7.17 | – | 6.5 |
| CNC(=O)c1c(-c2ccc(C(F)F)cc2)oc2cc(N(C)S(C)(=O)=O)c(-c3ccc4c(n3)-c3cc5c(F)cccc5n3CC4)cc12 [Example 29, 2-(4-(difluoromethyl)phenyl)-5-(11-fluoro-5,6-dihydroindolo[1,2-h][1,7]naphthyridin-2-yl)-N-methyl-6-(N-methylmethylsulfonamido)benzofuran-3-carboxamide] | – | 15.5 | – | 13.5 |
| CNC(=O)c1c(-c2ccc(F)cc2)oc2cc(N(C)S(C)(=O)=O)c(-c3ccc4c(n3)-c3cc5nc(OC)ccc5n3CC4)cc12 [Example 78] | – | 22.1 | – | 206 |
| CNC(=O)c1c(-c2ccc(F)cc2)oc2cc(N(C)S(C)(=O)=O)c(-c3ccc4c(n3)-c3cc5c(F)cccc5n3C(CO)C4)cc12 (stereo not drawn) [Example 53] | 8.07 | – | 4.03 | – |
| CNC(=O)c1c(-c2ccc(F)cc2)oc2cc(N(C)S(C)(=O)=O)c(-c3cc4c(nn3)CCn3c-4cc4c(F)cccc43)cc12 [Example 48, 5-(11-fluoro-5,6-dihydropyridazino[4′,3′:3,4]pyrido[1,2-a]indol-2-yl)-2-(4-fluorophenyl)-N-methyl-6-(N-methylmethylsulfonamido)benzofuran-3-carboxamide] | – | 2.64 | – | 1.72 |
| CNC(=O)c1c(-c2ccc(F)cc2)oc2cc(N(C)S(C)(=O)=O)c(-c3ccc4c(n3)-c3cc5c(F)cccc5n3C(CO)C4)cc12 (stereo not drawn) [Example 52] | 3.35 | 2.32 | – | – |
| CNC(=O)c1c(-c2ccc(C3CC3)nc2)oc2cc(N(C)S(C)(=O)=O)c(-c3ccc4c(n3)-c3cc5c(F)cccc5n3CC4)cc12 [Example 6] | – | 10.2 | – | 16.8 |
| CNC(=O)c1c(-c2ccc(F)cc2)oc2cc(N(C)S(C)(=O)=O)c(-c3cc4c(cn3)CCn3c-4cc4c(F)cccc43)cc12 [Example 39, 5-(11-fluoro-5,6-dihydroindolo[2,1-a][2,6]naphthyridin-2-yl)-2-(4-fluorophenyl)-N-methyl-6-(N-methylmethylsulfonamido)benzofuran-3-carboxamide] | – | 2.83 | – | 2.71 |
| CNC(=O)c1c(-c2cnn3c2CCCC3)oc2cc(N(C)S(C)(=O)=O)c(-c3ccc4c(n3)-c3cc5c(F)cccc5n3CC4)cc12 [Example 21] | – | 34.3 | – | 149 |
| CNC(=O)c1c(-c2ccc(F)cc2)oc2cc(N(C)S(C)(=O)=O)c(-c3ncc4c(n3)-c3cc5c(F)cccc5n3CC4)cc12 [Example 63, 5-(11-fluoro-5,6-dihydropyrimido[4′,5′:3,4]pyrido[1,2-a]indol-2-yl)-2-(4-fluorophenyl)-N-methyl-6-(N-methylmethylsulfonamido)benzofuran-3-carboxamide] | – | 3.28 | – | 4.34 |
| CNC(=O)c1c(-c2ccc(OC(F)F)nc2)oc2cc(N(C)S(C)(=O)=O)c(-c3ccc4c(n3)-c3cc5c(F)cccc5n3CC4)cc12 [Example 2] | – | 3.9 | – | 2.09 |
| CNC(=O)c1c(-c2ccc(C)nc2)oc2cc(N(C)S(C)(=O)=O)c(-c3cc4c(cn3)CCn3c-4cc4c(F)cccc43)cc12 [Example 40] | – | 17.1 | – | 16.6 |

Source: patent publication US9243002B2, “Tetracyclic heterocycle compounds and methods of use thereof for the treatment of hepatitis C” (priority 2013, dated 2016)
